Assays:
[1] = Pharmacokinetic study, intravenous 5 mg/kg; assay type: in vivo; settings: CD1 mice
Experimental: Pharmacokinetic studies of the compound of Example 1 (i.e. CC-006) and previously disclosed compounds EPZ004777, CC001 (see U.S. 2014/0051654) and FED1 were performed in CD1 mice following intravenous administration, as detailed in Table 1.
Mean plasma concentration-time profiles representative of the compound of Example 1 (i.e. CC-006) after intravenous dosing (5 mg kg^−1) are shown in FIG. 8A (data represent the mean and s.d. (n=3)). […] From the pharmacokinetic properties, the compound of Example 1 (i.e. CC-006) has potential for use in treatment using intravenous administration due to its long half-life, as compared to subcutaneous administration.

[2] = system: H3K27Me3 mark; assay: Western blot assay; assay type: cell-based; settings: compared to EPZ004777 and CC001, FIG. 5

For `CC(C)N(C[C@H]1C[C@@H](n2cc(C#N)c3c(N)ncnc32)[C@H](O)[C@@H]1O)C1CC(CCc2nc3ccc(C(C)(C)C)cc3[nH]2)C1` (stereo partly drawn) [Example 1, 4-amino-7-((1R,2S,3R,4R)-4-(((3-(2-(6-(tert-butyl)-1H-benzo[d]imidazol-2-yl)ethyl)cyclobutyl)(isopropyl)amino)methyl)-2,3-dihydroxycyclopentyl)-7H-pyrrolo[2,3-d]pyrimidine-5-carbonitrile], the “half-life relative to the half-life of EPZ004777” value [1] was “approximately 4.3 ×”, the “half-life relative to the half-life of FED1” value [1] was ~10.5 × and the “drug exposure (area under the curve (AUC))” value ([1]; 5 mg/kg, FIG. 8B) was “good drug exposure”. For the same molecule, the half-life ([1]; mouse, plasma, 5 mg/kg, FIG. 8B, read-out: half-life (T1/2) (converted)) was 12.6 h and the “reduction of H3K27 trimethylation” value [2] was “can reduce the H3K27 trimethylation at much lower dose compared to known DOT1L inhibitors EPZ004777 (structure shown below) and CC001”.
